Tests used:
bacteria in culture = assay: in vitro toxicity to bacteria in culture; assay type: cell-based
recombinant human HDAC4 = molecular target: T1, recombinant human HDAC4 (Homo sapiens, UniProt P56524); assay: HDAC4 in-vitro enzymatic assay; assay type: biochemical
T1 construct: purchased BPS 50004
Description: (§1) All of the compounds were dissolved in DMSO. A series of dilutions of the compounds were prepared with 10% DMSO in HDAC assay buffer and 5 μl of the dilution was added to a 50 μl reaction so that the final concentration of DMSO was 1% in all of reactions. The compounds were pre-incubated in duplicate at RT for 30 minutes in a mixture containing HDAC assay buffer, 5 μg BSA, HDAC enzyme and a test compound. After 30 minutes, the enzymatic reactions were initiated by the addition of HDAC substrate to a final concentration of 20 μM or 2 μM. The enzymatic reaction proceeded for 30 minutes at 37° C. After enzymatic reactions, 50 μl of 2×HDAC Developer was added to each well for the HDAC enzymes and the plate was incubated at room temperature for an additional 15 minutes. Fluorescence intensity was measured at an excitation of 360 nm and an emission of 460 nm using a Tecan Infinite M1000 microplate reader.
(§2) HDAC activity assays were performed in duplicates at each concentration. The fluorescent intensity data were analyzed using the computer software, Graphpad Prism. […] The percent activity in the presence of each compound was calculated according to the following equation: % activity=(F−Fb)/(Ft−Fb), where F=the fluorescent intensity in the presence of the compound. […] The IC50 value was determined by the concentration causing a half-maximal percent activity.

recombinant human HDAC2 = molecular target: T2, recombinant human HDAC2 (Homo sapiens, UniProt Q92769); assay: biochemical
T2 construct: purchased BPS 50002
Description: as §1, §2

[1] = Stability SGD, SIF w. Enzymes; assay type: in vitro ADME
recombinant human HDAC7 = molecular target: T3, recombinant human HDAC7 (Homo sapiens, UniProt Q8WUI4); assay: HDAC7 in-vitro enzymatic assay; assay type: biochemical
T3 construct: purchased BPS 50007
T3 sequence (Q8WUI4 1-952): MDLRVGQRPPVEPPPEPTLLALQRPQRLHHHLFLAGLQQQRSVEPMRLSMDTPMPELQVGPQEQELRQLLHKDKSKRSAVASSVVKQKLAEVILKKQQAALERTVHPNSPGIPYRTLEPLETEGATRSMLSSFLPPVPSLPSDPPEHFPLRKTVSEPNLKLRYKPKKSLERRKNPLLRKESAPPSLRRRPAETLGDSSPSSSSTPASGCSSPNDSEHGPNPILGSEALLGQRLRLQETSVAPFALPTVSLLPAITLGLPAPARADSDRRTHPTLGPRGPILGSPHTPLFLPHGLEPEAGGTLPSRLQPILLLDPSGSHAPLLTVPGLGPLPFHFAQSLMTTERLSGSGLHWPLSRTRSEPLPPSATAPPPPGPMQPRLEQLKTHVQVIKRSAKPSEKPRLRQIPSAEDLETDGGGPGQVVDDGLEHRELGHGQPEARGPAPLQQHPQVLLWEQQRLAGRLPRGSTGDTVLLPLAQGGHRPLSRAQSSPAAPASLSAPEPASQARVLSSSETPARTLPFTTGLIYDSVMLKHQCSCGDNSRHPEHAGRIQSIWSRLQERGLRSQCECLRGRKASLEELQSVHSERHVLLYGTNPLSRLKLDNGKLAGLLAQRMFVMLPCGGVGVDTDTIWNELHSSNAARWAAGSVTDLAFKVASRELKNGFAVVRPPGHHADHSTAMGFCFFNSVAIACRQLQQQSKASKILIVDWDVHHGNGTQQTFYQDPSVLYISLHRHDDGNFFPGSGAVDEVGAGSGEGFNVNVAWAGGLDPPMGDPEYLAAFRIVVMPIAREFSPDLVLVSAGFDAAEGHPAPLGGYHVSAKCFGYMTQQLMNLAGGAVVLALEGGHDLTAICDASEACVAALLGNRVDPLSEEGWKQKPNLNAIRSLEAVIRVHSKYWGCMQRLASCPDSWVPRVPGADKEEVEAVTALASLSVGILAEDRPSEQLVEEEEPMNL
Description: as §1, §2

T1 sequence (P56524 whole entry): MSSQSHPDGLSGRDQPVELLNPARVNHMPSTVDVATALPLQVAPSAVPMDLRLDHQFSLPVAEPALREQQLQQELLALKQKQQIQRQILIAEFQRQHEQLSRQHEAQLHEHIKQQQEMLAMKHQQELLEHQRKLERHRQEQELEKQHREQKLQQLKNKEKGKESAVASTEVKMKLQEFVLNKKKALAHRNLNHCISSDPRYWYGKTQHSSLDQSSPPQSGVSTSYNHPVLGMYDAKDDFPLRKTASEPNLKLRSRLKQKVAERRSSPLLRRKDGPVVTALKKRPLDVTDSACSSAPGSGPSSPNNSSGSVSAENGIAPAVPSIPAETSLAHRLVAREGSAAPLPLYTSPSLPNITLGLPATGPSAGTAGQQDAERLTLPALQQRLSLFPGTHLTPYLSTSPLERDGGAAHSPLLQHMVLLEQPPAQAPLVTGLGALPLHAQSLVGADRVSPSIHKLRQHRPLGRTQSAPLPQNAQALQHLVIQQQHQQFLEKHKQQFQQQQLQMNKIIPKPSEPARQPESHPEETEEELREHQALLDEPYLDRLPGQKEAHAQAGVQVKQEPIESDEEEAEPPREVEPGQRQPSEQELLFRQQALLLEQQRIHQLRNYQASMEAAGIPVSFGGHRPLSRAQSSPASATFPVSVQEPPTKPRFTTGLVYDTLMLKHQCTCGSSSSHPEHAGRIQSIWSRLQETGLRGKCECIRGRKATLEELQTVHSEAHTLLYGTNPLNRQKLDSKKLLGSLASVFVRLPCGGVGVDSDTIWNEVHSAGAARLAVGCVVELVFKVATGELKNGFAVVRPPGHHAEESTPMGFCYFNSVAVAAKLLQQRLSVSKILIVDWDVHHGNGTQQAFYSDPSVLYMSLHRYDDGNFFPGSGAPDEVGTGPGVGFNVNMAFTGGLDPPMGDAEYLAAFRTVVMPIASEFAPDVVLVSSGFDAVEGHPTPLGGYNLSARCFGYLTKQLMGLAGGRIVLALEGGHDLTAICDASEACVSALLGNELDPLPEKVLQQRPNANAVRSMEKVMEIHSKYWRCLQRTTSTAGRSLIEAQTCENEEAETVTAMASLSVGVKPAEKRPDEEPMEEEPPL
T2 sequence (Q92769 whole entry): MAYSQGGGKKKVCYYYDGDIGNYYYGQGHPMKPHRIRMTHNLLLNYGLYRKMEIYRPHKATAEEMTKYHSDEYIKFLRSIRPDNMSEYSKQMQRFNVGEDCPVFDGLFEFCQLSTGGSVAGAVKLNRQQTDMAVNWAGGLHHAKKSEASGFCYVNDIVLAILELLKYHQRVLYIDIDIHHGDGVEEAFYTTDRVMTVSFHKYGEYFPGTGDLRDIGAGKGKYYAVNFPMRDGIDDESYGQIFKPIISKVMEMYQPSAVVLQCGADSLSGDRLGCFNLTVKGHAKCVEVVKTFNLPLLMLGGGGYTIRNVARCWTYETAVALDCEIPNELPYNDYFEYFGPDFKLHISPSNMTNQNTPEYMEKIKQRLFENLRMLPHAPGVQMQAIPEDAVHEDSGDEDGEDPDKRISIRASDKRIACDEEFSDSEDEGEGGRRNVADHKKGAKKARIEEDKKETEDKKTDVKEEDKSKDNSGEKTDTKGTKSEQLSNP

SMILES: C#CCOCC(=O)Nc1ccc(C(=O)Nc2ccccc2N)cc1 [Compound 1, N-(2-aminophenyl)-4-{2-[(prop-2-yn-1-yl)oxy]acetamido}benzamide]
- toxicity to bacteria in culture (bacteria in culture): not toxic
- IC50 (recombinant human HDAC4): > 200 µM
- Inhib. HDAC4 (recombinant human HDAC4; @ 200 μM): No Inhib. @ 200 μM
- IC50 (recombinant human HDAC2): ~1.2 µM
- Stability SGD, SIF w. Enzymes [1]: High
- IC50 (recombinant human HDAC7): > 200 µM
- Inhib. HDAC7 (recombinant human HDAC7; @ 200 μM): No Inhib. @ 200 μM

Source: patent publication US20250381157A1, “ANTIMICROBIAL COMPOUNDS” (priority 2022, published 2025)
